Measurements taken from patent US7972793B2, “Methods and compositions for the treatment of psychotic disorders through the identification of the SULT4A1-1 haplotype” (Suregene, LLC, priority 2009, dated 2011).
Like-named read-outs stand apart in the source and are kept apart here.

Columns and labels:
[1] = system: CATIE African American schizophrenia patients; assay: CATIE drug response: change in total PANSS (LOCF), segmented by SULT4A1-1 status, African Americans; format: in vivo, human
Protocol: The design of the CATIE study has been described in detail by others (Lieberman et al., 2005; Stroup et al., 2003). […] A total of 738 subjects consented to provide DNA for genetic study. […] Retrospective genetic analyses, judged to be exempt from human studies requirements by an IRB, were conducted in the current study. All tested patients were studied using well established clinical endpoints comparing baseline, intermediate, and last observation carried forward (LOCF) for the PANSS scores using CATIE data. […] To remove time on drug as a variable for the CATIE trial, analysis was limited to only those patients who were randomized to a different drug following the initial washout period (drug switchers).

CATIE patients = assay: Kaplan-Meier survival (no hospitalization event) analysis, SULT4A1-1 negative vs positive; format: in vivo, human; conditions: FIG. 8
Protocol: A Kaplan-Meier survival analysis was performed to determine whether there was a difference between the survival (hospitalization) rates for the SULT4A1-1 negative and SULT4A1-1 positive patient populations treated with each of the atypical antipsychotics. Survival plots model the fraction of the population that survived (i.e., no hospitalization event) as a function of time.

[2] = system: CATIE Phase I non-responders; conditions: CATIE Phase II, LOCF; for Responders (number): decrease PANSS ≧ 20%

## OCCOCCN1CCN(C2=Nc3ccccc3Sc3ccccc32)CC1 [Quetiapine]
[1]; SULT4A1-1 Negative
  ≦−20% (number of individuals; responders): 9
  ≧−20% (number of individuals; non-responders): 25
[1]; SULT4A1-1 Positive
  ≦−20% (number of individuals; responders): 2
  ≧−20% (number of individuals; non-responders): 4
CATIE patients
  Difference between survival (no hospitalization) rates of SULT4A1-1 negative and SULT4A1-1 positive patients: significant difference
[2]; SULT4A1-1 Negative
  Nonresponders (number): 10
  Responders (number): 1
[2]; SULT4A1-1 Positive
  Nonresponders (number): 1
  Responders (number): 0
